Data as given in US9192644B2, “Bioavailable curcuminoid formulations for treating Alzheimer's disease and other age-related disorders” (The Regents of the University of California, priority 2006, dated 2015).
Read-outs that look alike come from different tables or passages of the source. Marks after values point to notes of the source that are not given here. Values belong to the compound of their own block, whether it stands above or below them.

Columns and labels:
[1] = assay type: physicochemical
Description: Therefore, providing a curcuminoid-to-antioxidant ratio of about 10:1 or higher should be sufficient to prevent hydrolysis during absorption, and enhance bioavailability. […] Thus, additional antioxidant need not add prohibitively to the bulk of a formulation.

[2] = tested on: active c-jun kinase (p)JNK; assay: Inhibition of active c-jun kinase in brain after curcumin administration; assay type: in vivo; conditions: mice, plasma levels 0.25-0.5 micromolar
[3] = Conversion of curcumin to tetrahydrocurcumin in plasma; assay type: in vivo
iNOS = assay: Inhibition of iNOS in brain after curcumin administration; assay type: in vivo; conditions: mice, plasma levels 0.25-0.5 micromolar
[4] = Plasma levels after chronic Curc or TC administration in diet (500 ppm chow, 4 months); assay type: in vivo, APPsw mice; conditions: for Plasma (μM) / concentration at 4 months: APPsw mice, 500 mg/kg chow (2.5 mg/day), 4 months; for concentration at 4 months: mouse, plasma, oral
amyloid accumulation = assay: Amyloid accumulation in vivo in APP Tg mice
in vivo = conditions: mouse
IL-1β = assay: Inhibition of pro-inflammatory IL-1β in brain after curcumin administration; assay type: in vivo; conditions: mice, plasma levels 0.25-0.5 micromolar
[5] = 4 hr after administration

Structure (SMILES): COc1cc(/C=C/C(=O)CC(=O)/C=C/c2ccc(O)c(OC)c2)ccc1O [Curc, curcumin]
stability in aqueous solution [1]: unstable in aqueous solutions above pH 7.0 | inhibition of active c-jun kinase (p)JNK [2]: ~50% | curcuminoids in plasma naturally converted to tetrahydrocurcumin [3]: 25% | inhibition of iNOS (iNOS): ~50% | Plasma (μM) [4]: (0.095 μM) | concentration at 4 months [4]: 35 ± 14 ng/mL | amyloid accumulation (amyloid accumulation): effectively reduces | concentration at 4 hr (in vivo): 250 to 500 nM | Brain (μg/10 mg protein) (mouse, in vivo, ip, 4 hr): 0.074 ± 0.003^b μg/10 mg protein | inhibition of pro-inflammatory IL-1β (IL-1β): ~50%

Structure (SMILES): COc1cc(CCC(=O)CC(=O)CCc2ccc(O)c(OC)c2)ccc1O [TC, tetrahydrocurcumin]
Plasma (μM) ([5]; i.m., dose 73.5 μg): (2.639 μM) | Plasma (μM) ([5]; i.p., dose 147.0 μg): (2.302 μM) | stability in aqueous solution [1]: stable even at basic pH | Plasma (μM) [4]: (0.734 μM) | concentration at 4 months [4]: 270 ± 3 ng/mL | plasma levels relative to curcumin ([4]; same oral doses, our data and data in the literature): 7-8 times | concentration at 4 hr (in vivo; 73.5 μg): 971 ± 92 ng/mL | concentration at 4 hr (in vivo; ip, 147 μg): 847 ± 19 ng/mL | Brain (μg/10 mg protein) (gav, dose 147.0 μg, 4 hr after administration): 0.027 ± 0.002^a μg/10 mg protein | Brain (μg/10 mg protein) (i.m., dose 73.5 μg, 4 hr after administration): 0.223 ± 0.023^c μg/10 mg protein | Brain (μg/10 mg protein) (i.p., dose 147.0 μg, 4 hr after administration): 0.076 ± 0.003^b μg/10 mg protein

retarding curcumin hydrolysis ([1]; 25 micromolar curcumin, PBS pH 7.4, absorbance at 426 nm (FIG. 2)): very effective | retarding hydrolysis of curcumin ([1]; curcumin-to-ascorbic acid ratio of 1:1 or 2:1, absorbance at 450 and 405 nm (FIGS. 3 and 4)): very effective | retarding hydrolysis of curcumin ([1]; curcumin-to-ascorbic acid ratios higher than 2:1 (FIGS. 3 and 4)): somewhat diminished effectiveness
Structure (SMILES): O=C1O[C@H]([C@@H](O)CO)C(O)=C1O [ascorbic acid]
